Laboratory results from patent publication US8236826B2, “Diarylether derivatives as antitumor agents” (Otsuka Pharmaceutical Co., Ltd., priority 2005, dated 2012).

Tests used:
[1] = tested on: human hepatic cancer cells (HuH-7); assay: Anti-proliferative effect on human hepatic cancer cells, sulforhodamine B method; format: cell-based; conditions: 120 h, HuH-7 cells, cultured 5 days with compound
Excerpt: (§1) Anti-proliferative effect of test compounds on human hepatic cancer cells (HuH-7), human lung cancer cells (EBC-1), human colorectal cancer cells (HCT116), human prostatic cancer cells (22Rv1), human pancreatic cancer cells (MIA PaCa-2), human stomach cancer cells (MKN45), human breast cancer cells (ZR-75-1) was checked by a sulforhodamine B method in accordance with Skehan P et al. (J. Natl. Cancer Inst. 1990 Jul. 4; 82(13): 1107-12). Explanation will be made taking HuH-7 cells as an example.
(§2) HuH-7 cells were seeded on DMEM medium (Dulbeco's modified Eagle Medium) containing 10% fetal bovine serum of a 96-well microplate and cultured at 37° C. for 24 hours in the presence of 5% carbon dioxide gas (CO2). Thereafter, a test compound was added to the wells and the cells were cultured for a further 5 days. […]
(§3) To each of the wells, a 1% aqueous acetic acid solution containing 0.4% sulforhodamine B was added and the wells were allowed to stand still at room temperature for 20 to 30 minutes. […] Subsequently, OD (optical density) was measured at a measurement wavelength of 492 nm and a reference wavelength of 690 nm to obtain the difference (A) in OD thus measured. Furthermore, the OD of a control well (containing no cells) was measured at a measurement wavelength of 492 nm and a reference wavelength of 690 nm to obtain the difference (B) in OD. […]

[2] = tested on: human lung cancer cells (EBC-1); assay: Anti-proliferative effect on human lung cancer cells, sulforhodamine B method; format: cell-based; conditions: EBC-1 cells
Excerpt: as §1, §2, §3

[3] = tested on: human colorectal cancer cells (HCT116); assay: Anti-proliferative effect on human colorectal cancer cells, sulforhodamine B method; format: cell-based; conditions: HCT-116
Excerpt: as §1, §2, §3

[4] = tested on: human prostatic cancer cells (22Rv1); assay: Anti-proliferative effect on human prostatic cancer cells, sulforhodamine B method; format: cell-based; conditions: 22Rv1 cells
Excerpt: as §1, §2, §3

[5] = tested on: human pancreatic cancer cells (MIA PaCa-2); assay: Anti-proliferative effect on human pancreatic cancer cells, sulforhodamine B method; format: cell-based; conditions: MIA PaCa-2 cells
Excerpt: as §1, §2, §3

[6] = tested on: human stomach cancer cells (MKN45); assay: Anti-proliferative effect on human stomach cancer cells, sulforhodamine B method; format: cell-based; conditions: MKN-45
Excerpt: as §1, §2, §3

[7] = tested on: human breast cancer cells (ZR-75-1); assay: Anti-proliferative effect on human breast cancer cells, sulforhodamine B method; format: cell-based; conditions: ZR-75-1 cells
Excerpt: as §1, §2, §3

[8] = tested on: human chronic myelogenous leukemia cells (KU812); assay: Anti-proliferative effect on human chronic myelogenous leukemia cells, MTT assay; format: cell-based; conditions: 120 h, cultured 5 days with compound
Experimental: (§4) Anti-proliferative effect of test compounds on human chronic myelogenous leukemia cells (KU812) was determined by an MTT assay in accordance with the method described in Singh A K et al. (Cancer Lett. 1996 Oct. 1; 107(1): 109-15). To describe more specifically, KU812 cells were seeded on RPMI 1640 medium containing 10% fetal bovine serum of a 96-well microplate, cultured at 37° C. for 24 hours in the presence of a 5% carbon dioxide gas (CO2). Thereafter, a test compound was added to the wells and the cells were cultured for a further 5 days. After the incubation, 10 μl of 5 mg/mL MTT ([…]) was added to the wells. After the cells were cultured for 4 hours, 100 μl of 0.01N HCl containing 10% SDS (sodium dodecyl sulfate) was added to the wells, which was further cultured overnight. Subsequently, OD was measured at a measurement wavelength of 570 nm and a reference wavelength of 690 nm to obtain the difference (A) in OD. Furthermore, OD of a control well (containing no cells) was measured at a measurement wavelength of 570 nm and a reference wavelength of 690 nm to obtain the difference (B) in OD. The difference (A−B) was regarded as the cell proliferation activity of each of the wells. […]

[9] = tested on: human renal cancer cells (Caki-2); assay: Anti-proliferative effect on human renal cancer cells, sulforhodamine B method; format: cell-based; conditions: Caki-2 cells
[10] = tested on: human multiple myeloma cells (IM-9); assay: Anti-proliferative effect on human multiple myeloma cells, MTT assay; format: cell-based; conditions: IM-9 cells
Experimental: [The source words this procedure for another cell line and reports this cell line under the same test.] as §4

[11] = tested on: human acute myelogenous leukemia cells (KG-1); assay: Anti-proliferative effect on human acute myelogenous leukemia cells, MTT assay; format: cell-based; conditions: KG-1 cells
Experimental: [The source words this procedure for another cell line and reports this cell line under the same test.] as §4

[12] = tested on: Human hepatic cancer cells HuH-7; assay: Anti-tumor effect on HuH-7 cells transplanted into SCID mice; format: in vivo; conditions: 100 mg/kg/day orally once a day for 9 days, HuH-7 tumor in SCID mice
Experimental: Pharmacological Test 2 Anti-Cancer Effect […] on Hepatic Cancer Cells HuH-7
Human hepatic cancer cells HuH-7 were transplanted into SCID mice (a group of 6 female mice). Anti-tumor effect of test compounds according to the present invention was checked. To describe more specifically, the cancer cells were cultured in advance and a cell suspension solution containing the cancer cells in a concentration of 2.5×10^7 cells/mL was prepared. Then, 0.2 mL of the cell suspension solution was injected into the right axillary region of each of the mice to transplant the cancer cells. In this manner, cancer-bearing mice were prepared. […] Next day after completion of administration, the volume of a tumor was measured. The ratio in volume of a tumor at the time of grouping relative to that measured next day after completion of administration was calculated to obtain a relative tumor volume of each group. Then, the ratio (T/C %) in relative tumor volume of […] (administrated with a test compound) was calculated and used as an index of the effect. Relative tumor volume=tumor volume measured on the next day of completion of administration/tumor volume measured at the time of grouping (T/C %)=(an average value of relative tumor volume of test compound administration group)/(an average value of relative tumor volume of a control group)×100

[13] = tested on: human Burkitt's lymphoma cells (Daudi); assay: Cell proliferation suppression activity on human Burkitt's lymphoma cells, MTT assay; format: cell-based; conditions: applied dose 10 nM
Experimental: [The source words this procedure for another cell line and reports this cell line under the same test.] as §4

[14] = tested on: human lymphoma cells (U937); assay: Cell proliferation suppression activity on human lymphoma cells, MTT assay; format: cell-based; conditions: applied dose 10 nM
Experimental: [The source words this procedure for another cell line and reports this cell line under the same test.] as §4

| Structure (SMILES) | IC50 [1] [nM] | IC50 [2] [nM] | IC50 [3] [nM] | IC50 [4] [nM] | IC50 [5] [nM] | IC50 [6] [nM] | IC50 [7] [nM] | IC50 [8] [nM] | IC50 [9] [nM] | IC50 [10] [nM] | IC50 [11] [nM] | T/C % (relative tumor volume, test group vs control group) [12] [%] | Daudi (T/C %) cell proliferation suppression activity [13] [%] | U937 (T/C %) cell proliferation suppression activity [14] [%] | melting point [°C] |
| --- | --- | --- | --- | --- | --- | --- | --- | --- | --- | --- | --- | --- | --- | --- | --- |
| O=C(Nc1ccc(Oc2ccc(CCC(=O)N3CCN(Cc4ccc5c(c4)OCO5)CC3)cc2)nc1)c1ccc(C(F)(F)F)cc1 [Example 1039, N-(6-{4-[3-(4-piperonylpiperazin-1-yl)-3-oxopropyl]phenoxy}pyridin-3-yl)-4-trifluoromethylbenzamide] | < 100 | < 100 | < 100 | < 100 | < 100 | < 100 | < 1000 | < 100 | < 100 | < 100 | < 100 | – | – | – | – |
| Cc1cc(N(C)CC(=O)N2CCN(Cc3ccc4c(c3)OCO4)CC2)ccc1Oc1ccc(NC(=O)c2ccc(C(F)(F)F)cc2)cn1 [Example 1503, N-[6-(4-{[2-(4-piperonylpiperazin-1-yl)-2-oxoethyl]methylamino}-2-methylphenoxy)pyridin-3-yl]-4-trifluoromethylbenzamide] | < 100 | < 100 | < 100 | < 100 | < 100 | < 100 | < 100 | < 100 | < 100 | < 100 | < 100 | <50 | <70 | <70 | – |
| CCN(CC(=O)N1CCN(Cc2ccc3c(c2)OCO3)CC1)c1ccc(Oc2ccc(NS(=O)(=O)c3ccc(C(F)(F)F)cc3)cn2)c(F)c1 [Example 2712, N-[6-(4-{[2-(4-piperonylpiperazin-1-yl)-2-oxoethyl]ethylamino}-2-fluorophenoxy)pyridin-3-yl]-4-trifluoromethylbenzenesulfonamide] | – | – | – | – | – | – | – | – | – | – | – | – | – | – | 177.8 to 180.1 |
